Reference: patent US6054437A, “Method for inducing death of neoplastic cells using piperazine derivatives” (Hitachi Chemical Research Center, Inc., priority 1997, dated 2000)
≈ marks a conversion by molar mass, not a printed value. Read-outs that look alike come from different tables or passages of the source.

Key:
KB-V-1 (resistant cells) = test: Drug accumulation assay ([3H]-vinblastine), resistant cells; format: cell-based, human
Procedure: (§1) 1. Drug Accumulation Assays
(§2) where the effect of NCO-700 on the uptake of radioactive (^3 H)-vinblastine, an anticancer drug, is measured in cultured cancer cells, that are both drug-resistant and drug-sensitive (Reference 3).
(§3) In the first two in vitro assays, the drug accumulation assay and the cell survival assay, a human pharyngeal carcinoma cell line (KB-V-1) which is highly resistant to anticancer drugs was used. This cell line was developed by Drs. Ira Pastan and Michael Gottesman of the National Cancer Institute, by step-wise selection in colchicine of drug-resistant cells. The control cancer cell line (KB-3), from which the resistant cell lines were derived, is sensitive to anticancer drugs.
Measurement of [^3 H]-vinblastine accumulation was performed by the methods developed in the laboratory of Drs. […] In this method, KB-V-1 and KB-3 cells were plated in 10% fetal bovine serum at a density of 3×10^5 cells per well in 24-well Costar plates. The next day, the growth medium was replaced with Dulbecco's modified Eagle's medium with or without (control cells) 20 μM NCO-700. After ten minutes, the medium was removed and replaced with assay medium (0.5 ml) containing 0.1 μCi, (13 pmol) [^3 H]-vinblastine in the presence or absence of 20 μM NCO-700. After an additional 30 min, the medium was removed, the plates were washed three times in ice-cold phosphate-buffered saline, the cells were detached with trypsin, and radioactivity determined by scintillation counting.

KB-3 (sensitive cells) = test: Drug accumulation assay ([3H]-vinblastine), sensitive cells; format: cell-based, human; conditions: KB-3, control (vinblastine alone)
Procedure: as §1, §2
as §3, with “drugs. The resistant KB-V-1 cell line is approximately 275 times more resistant to vinblastine than the sensitive KB-3 line and has a greatly amplified mdr gene which generates the observed resistance.” for “drugs.”
Measurement of [^3 H]-vinblastine accumulation was performed by the methods developed in the laboratory of Drs. Gottesman and Pastan (Fojo et al., Cancer Res. 45:3002-3007, 1985). […] After an additional 30 min, the medium was removed, the plates were washed three times in ice-cold phosphate-buffered saline, the cells were detached with trypsin, and radioactivity determined by scintillation counting.

KB-3 (sensitive) = test: Cell survival assay with vinblastine, sensitive cells; format: cell-based, human; conditions: Homo sapiens, read-out: vinblastine to kill 50% of cells
Procedure: (§4) where the effect of NCO-700 to enhance cancer cell killing by vinblastine was measured.
as §3, with “drugs. The resistant KB-V-1 cell line is approximately 275 times more resistant to vinblastine than the sensitive KB-3 line and has a greatly amplified mdr gene which generates the observed resistance.” for “drugs.”
(§5) The cell survival experiments shown above were performed by plating KB-3 (sensitive) and KB-V-1 (resistant) cells in 32 mm well plastic dishes at a cell density of 300-500 cells per well. Vinblastine and NCO-700 were added 16 hours after the initial cell plating. After 10 days of incubation at 37°, cell colonies were stained and counted.

KB-V-1 (resistant) [1] = test: Cell survival assay with vinblastine, resistant cells; format: cell-based, human; conditions: Homo sapiens
Procedure: as §4
as §3, with “drugs. The resistant KB-V-1 cell line is approximately 275 times more resistant to vinblastine than the sensitive KB-3 line and has a greatly amplified mdr gene which generates the observed resistance.” for “drugs.”
as §5

KB-V-1 (resistant) [2] = conditions: cited from earlier work
[3] = in vivo; cited from earlier work
[4] = test system: thiol protease, especially calcium-activated neutral protease (CANP); conditions: cited from earlier work

With `CC[C@]1(O)C[C@@H]2CN(CCc3c([nH]c4ccccc34)[C@@](C(=O)OC)(c3cc4c(cc3OC)N(C)[C@H]3[C@@](O)(C(=O)OC)[C@H](OC(C)=O)[C@]5(CC)C=CCN6CC[C@]43[C@@H]65)C2)C1` [vinblastine, reference compound] the vinblastine accumulation (KB-V-1 (resistant cells); KB-V-1, control (vinblastine alone)) was 0.29 ± 0.03 pmole vinblastine/mg protein, the “accumulation of vinblastine (in words)” value (KB-V-1 (resistant cells); drug-resistant cell line) was “severely restricted” and the vinblastine accumulation (KB-3 (sensitive cells)) was 2.99 ± 0.12 pmole vinblastine/mg protein. For the same compound, the IC50 (KB-3 (sensitive)) was 0.0032 µg/mL (≈ 0.00395 µM), the IC50 (KB-V-1 (resistant) [1]; KB-V1, read-out: level of vinblastine needed to kill 50% of the tumor cells) was 0.825 µg/mL (≈ 1.02 µM) and the IC50 (KB-V-1 (resistant) [1]; KB-V1, read-out: vinblastine to kill 50% of cells) was 0.792 µg/mL (≈ 0.977 µM). For the same compound, the “resistance to vinblastine, KB-V-1 versus KB-3” value (KB-V-1 (resistant) [2]) was “approximately 275 times” and the side effects [3] was “inevitable side effects such as hair loss, weight loss, and liver and kidney damage”.
For `CCOC(=O)[C@H]1O[C@@H]1C(=O)N[C@@H](CC(C)C)C(=O)NCCC(C)C` [EST], the “thiol protease inhibitory activity” value [4] is listed as “thiol protease inhibitory activity, especially calcium-activated neutral protease (CANP) inhibitory activity”.
